# Measurements from patent publication US9701709B2 (REATA PHARMACEUTICALS, INC., priority 2012, dated 2017).
# Where two headings read alike, the source gives them in different places.
# Key:
# [1] = tested on: total glutathione in AML-12 hepatocyte cell line; experiment: Total glutathione (GSH-Glo) in AML-12; format: cell-based, mouse; details: AML-12, 24 h, 15.6 nM
# Excerpt: Glutathione and NADPH are critical factors required for the maintenance of cellular redox capacity. […] Data shown are representative of two independent experiments.
# [2] = tested on: STAT3 phosphorylation in HeLa cells; experiment: IL-6-induced STAT3 phosphorylation in HeLa; format: cell-based, human; details: 1 μM, 6 h pretreatment
# [3] = tested on: LNCaP prostate cancer cell line; experiment: Cytotoxicity in combination with 5-fluorouracil in LNCaP; format: cell-based; details: RTA 408 0.125 to 0.5 μM
# Excerpt: (§1) This evidence supports the concept that RTA 408 could act synergistically with cancer therapeutic agents and may be used in some embodiments to provide greater efficacy in treating cancer patients.
# CYP2B6 = CYP2B6 (Homo sapiens, UniProt P20813); experiment: CYP450 inhibition in pooled human liver microsomes, CYP2B6; format: in vitro ADME; details: highest concentration tested (3 μM)
# Excerpt: (§2) In addition, there was little or no evidence of metabolism-dependent inhibition of any of the enzymes tested.
# cardiovascular function = experiment: Cardiovascular evaluation in conscious cynomolgus monkeys (telemetry); format: in vivo, cynomolgus monkey
# Procedure: Animals were instrumented with telemetry transmitters for measurement of body temperature, blood pressure, heart rate, and electrocardiogram (ECG) evaluation. Body temperature, systolic, diastolic, and mean arterial blood pressure, heart rate, and ECG parameters (QRS duration and RR, PR, and QT intervals) were monitored continuously from at least 2 h pre-dose until at least 24 h post-dose. ECG tracings were printed at designated time points from the cardiovascular monitoring data and were qualitatively evaluated by a board-certified veterinary cardiologist.
# Observations for morbidity, mortality, injury, and availability of food and water were conducted at least twice daily for all animals. Clinical observations were conducted pre-dose, approximately 4 h post-dose, and following completion of the cardiovascular monitoring period. Body weights were measured and recorded on the day prior to each treatment administration.
# [4] = tested on: Alt1, Alt2, Ast1, Ast2 mRNA in AML-12 hepatocytes; experiment: Transaminase gene mRNA (qPCR) in AML-12; format: cell-based, mouse; details: 250 nM or 500 nM, 18 h
# Procedure: One hypothesis for this effect is that AIMs directly or indirectly increase transaminase gene expression in the absence of cellular toxicity. […] AML-12 cells were plated in 6-well culture dishes at 3×10^5 cells per well using 2 mL of media per well. […] Each well received 0.1% DMSO. Three independent replicate experiments were performed. Following treatment, media was removed and cells were harvested using RLT buffer (Qiagen). Lysates were homogenized using QIAShredder columns (Qiagen, Catalog #79654) and RNA was isolated using RNeasy Mini kits (Qiagen, Catalog #74104). For reverse transcription, RNA (1 μg) was combined with Oligo(dT)12-18 primer and H2O in a final volume of 23.25 μL. The mixture was heated to 70° C. for 10 min and then placed on ice. A master mix containing 8 μL 5×1st strand buffer, 2 μL 1 mg/ml BSA, 2 μL 20 mM DTT, 4 μL 5 mM dNTP mix, 0.25 μL RNaseOUTTM and 0.5 μL […]® II reverse transcriptase was added to the RNA mixture and incubated at 42° C. for 1 h. The reaction was inactivated by heating to 70° C. for 10 min. The reaction mixture was diluted 1:3 with H2O prior to use in qPCR. 2.5 μL of the diluted reverse transcription reaction was combined with one set of PCR primers (0.36 μM final concentration), 2× iQTM SYBR® Green Supermix (Bio-Rad, Catalog #170-8885) and H2O to a final volume of 20 pt. Sequences for PCR primers are as follows: […] All primers had previously been validated for specificity and amplification efficiency. cDNA was amplified using the following cycle conditions: (95° C. for 3 min, 44 cycles of 95° C. for 30 sec, 60° C. for 15 sec, 72° C. for 15 sec, followed by a melt curve of 55° C. to 95° C. in increments of 0.5° C.). The relative abundance of each target gene was determined using the comparative CT method (ΔΔCT). PCR reactions were run in triplicate wells for each sample.
# [5] = tested on: rat GSTA2 ARE (Nrf2) in AREc32 reporter cell line; experiment: GSTA2-ARE luciferase reporter in AREc32; details: 15.6 nM, 18 h
# CYP2C19 = CYP2C19 (Homo sapiens, UniProt P33261); experiment: CYP450 inhibition in pooled human liver microsomes, CYP2C19; format: in vitro ADME; details: highest concentration tested (3 μM)
# Excerpt: as §2
# [6] = tested on: DU-145 prostate cancer cell line; experiment: Cytotoxicity in combination with docetaxel in DU-145; format: cell-based; details: RTA 408 0.125 to 0.75 μM
# Excerpt: as §1
# CYP2C8 = CYP2C8 (Homo sapiens, UniProt P10632); experiment: CYP450 inhibition in pooled human liver microsomes, CYP2C8; format: in vitro ADME; details: read-out: Ki, direct inhibition of CYP2C8
# Excerpt: as §2
# cynomolgus monkeys = details: for ALP / ALT / AST / Albumin / BUN / Chol / Cr / Glucose / TG / Tot Bil / Tot Prot: monkey, Day 14
# [7] = 28-day toxicity study in rats; format: in vivo, rat
# CYP2C19, sequence (P33261 whole entry): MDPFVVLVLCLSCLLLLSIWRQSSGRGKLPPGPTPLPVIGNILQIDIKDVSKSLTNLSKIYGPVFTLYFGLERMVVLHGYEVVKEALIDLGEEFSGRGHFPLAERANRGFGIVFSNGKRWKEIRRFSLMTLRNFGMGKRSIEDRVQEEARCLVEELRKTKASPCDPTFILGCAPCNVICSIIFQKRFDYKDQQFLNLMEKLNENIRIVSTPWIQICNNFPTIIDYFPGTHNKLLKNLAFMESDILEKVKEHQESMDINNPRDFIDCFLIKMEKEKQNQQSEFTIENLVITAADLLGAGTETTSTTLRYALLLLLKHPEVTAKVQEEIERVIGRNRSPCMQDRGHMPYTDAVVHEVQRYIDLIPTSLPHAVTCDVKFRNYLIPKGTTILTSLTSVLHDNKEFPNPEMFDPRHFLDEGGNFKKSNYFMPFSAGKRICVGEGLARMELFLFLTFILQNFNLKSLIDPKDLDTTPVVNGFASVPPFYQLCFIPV
# CYP2B6, sequence (P20813 whole entry): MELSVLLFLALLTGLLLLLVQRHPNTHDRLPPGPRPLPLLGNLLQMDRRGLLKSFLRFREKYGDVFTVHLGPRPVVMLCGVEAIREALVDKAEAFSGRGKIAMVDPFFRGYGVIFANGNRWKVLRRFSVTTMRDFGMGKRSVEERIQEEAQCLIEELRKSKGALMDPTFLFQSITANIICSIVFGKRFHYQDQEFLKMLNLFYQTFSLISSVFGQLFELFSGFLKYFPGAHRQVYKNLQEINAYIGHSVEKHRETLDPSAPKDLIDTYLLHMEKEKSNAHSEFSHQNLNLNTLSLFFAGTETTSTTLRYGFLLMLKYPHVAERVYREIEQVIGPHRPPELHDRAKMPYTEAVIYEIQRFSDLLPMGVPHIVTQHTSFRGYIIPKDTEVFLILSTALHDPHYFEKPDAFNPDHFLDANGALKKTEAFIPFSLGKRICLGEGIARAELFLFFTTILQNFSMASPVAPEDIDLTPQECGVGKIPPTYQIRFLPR
# CYP2C8, sequence (P10632 whole entry): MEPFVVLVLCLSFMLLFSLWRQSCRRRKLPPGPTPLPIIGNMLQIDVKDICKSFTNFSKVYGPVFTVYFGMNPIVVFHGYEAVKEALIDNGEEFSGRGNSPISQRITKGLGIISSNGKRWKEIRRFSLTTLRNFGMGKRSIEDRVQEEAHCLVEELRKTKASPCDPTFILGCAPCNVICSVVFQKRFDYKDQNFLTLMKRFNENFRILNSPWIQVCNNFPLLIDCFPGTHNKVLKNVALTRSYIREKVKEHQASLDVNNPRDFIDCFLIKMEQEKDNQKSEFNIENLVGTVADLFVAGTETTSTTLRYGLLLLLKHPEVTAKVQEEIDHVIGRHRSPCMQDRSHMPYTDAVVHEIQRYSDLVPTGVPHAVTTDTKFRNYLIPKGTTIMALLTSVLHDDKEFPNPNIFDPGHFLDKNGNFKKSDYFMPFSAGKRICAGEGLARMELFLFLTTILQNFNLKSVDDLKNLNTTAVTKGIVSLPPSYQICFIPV
smiles,measurement,setting,value
"CC1(C)CC[C@]2(NC(=O)C(C)(F)F)CC[C@]3(C)[C@H](C(=O)C=C4[C@@]5(C)C=C(C#N)C(=O)C(C)(C)[C@@H]5CC[C@]43C)[C@@H]2C1 [RTA 408, N-((4aS,6aR,6bS,8aR,12aS,14aR,14bS)-11-cyano-2,2,6a,6b,9,9,12a-heptamethyl-10,14-dioxo-1,2,3,4,4a,5,6,6a,6b,7,8,8a,9,10,12a,14,14a,14b-octadecahydropicen-4a-yl)-2,2-difluoropropanamide]",Increase in total glutathione,[1],> 2 fold
same,IL-6-induced phosphorylation of STAT3,[2],inhibited phosphorylation of STAT3 induced by IL-6
same,Cytotoxicity of 5-fluorouracil in combination,[3],statistically significant increase in cytotoxicity when combined with RTA 408
same,inhibition at 3 µM,CYP2B6,< 50%
same,Increase in the corrected QT interval (on average),"cardiovascular function; 100 mg/kg oral, not considered treatment related",1.6%
same,Cardiovascular function,"cardiovascular function; oral, doses up to and including 100 mg/kg",produced no effects on cardiovascular function
same,mRNA levels of alanine transaminase 1 (Alt1 or Gpt1),[4],increased mRNA levels of alanine transaminase 1
same,mRNA levels of alanine transaminase 2 (Alt2 or Gpt2),[4],no effect
same,mRNA levels of aspartate transaminase 1 (Ast1 or Got1),[4],increased mRNA levels
same,mRNA levels of aspartate transaminase 2 (Ast2 or Got2),[4],reduced mRNA levels
same,"Induction of luciferase activity, GSTA2-ARE reporter",[5],~2 fold
same,inhibition at 3 µM,CYP2C19,< 50%
same,Cytotoxicity of docetaxel in combination,[6],amplified the cytotoxicity of the chemotherapeutic agent in a statistically significant fashion
same,Ki,CYP2C8,~0.5 µM
same,"NQO1, Gst, Gsr enzyme activity in monkey liver and lung (and rodent liver)","cynomolgus monkeys; 10, 30, and 100 mg/kg, 14 days","dose-dependent increases in NQO1, Gst, and Gsr enzyme activity"
same,Clinical chemistry,cynomolgus monkeys; 14 days,Clinical chemistry data suggested no obvious toxicity
same,ALP,cynomolgus monkeys; 10 mg/kg,382 U/L
same,ALT,cynomolgus monkeys; 10 mg/kg,46 U/L
same,AST,cynomolgus monkeys; 10 mg/kg,38 U/L
same,Albumin,cynomolgus monkeys; 10 mg/kg,4 g/dL
same,BUN,cynomolgus monkeys; 10 mg/kg,27 mg/dL
same,Chol,cynomolgus monkeys; 10 mg/kg,144 mg/dL
same,Cr,cynomolgus monkeys; 10 mg/kg,0.68 mg/dL
same,Glucose,cynomolgus monkeys; 10 mg/kg,39 mg/dL
same,TG,cynomolgus monkeys; 10 mg/kg,82 mg/dL
same,Tot Bil,cynomolgus monkeys; 10 mg/kg,0.23 mg/dL
same,Tot Prot,cynomolgus monkeys; 10 mg/kg,7.2 g/dL
same,ALP,cynomolgus monkeys; 30 mg/kg,416 U/L
same,ALT,cynomolgus monkeys; 30 mg/kg,47 U/L
same,AST,cynomolgus monkeys; 30 mg/kg,43 U/L
same,Albumin,cynomolgus monkeys; 30 mg/kg,4 g/dL
same,BUN,cynomolgus monkeys; 30 mg/kg,20 mg/dL
same,Chol,cynomolgus monkeys; 30 mg/kg,122 mg/dL
same,Cr,cynomolgus monkeys; 30 mg/kg,0.58 mg/dL
same,Glucose,cynomolgus monkeys; 30 mg/kg,53 mg/dL
same,TG,cynomolgus monkeys; 30 mg/kg,64 mg/dL
same,Tot Bil,cynomolgus monkeys; 30 mg/kg,0.2 mg/dL
same,Tot Prot,cynomolgus monkeys; 30 mg/kg,7.2 g/dL
same,ALP,cynomolgus monkeys; 100 mg/kg,390 U/L
same,ALT,cynomolgus monkeys; 100 mg/kg,43 U/L
same,AST,cynomolgus monkeys; 100 mg/kg,37 U/L
same,Albumin,cynomolgus monkeys; 100 mg/kg,3.2 g/dL
same,BUN,cynomolgus monkeys; 100 mg/kg,24 mg/dL
same,Chol,cynomolgus monkeys; 100 mg/kg,93 mg/dL
same,Cr,cynomolgus monkeys; 100 mg/kg,0.55 mg/dL
same,Glucose,cynomolgus monkeys; 100 mg/kg,32 mg/dL
same,TG,cynomolgus monkeys; 100 mg/kg,61 mg/dL
same,Tot Bil,cynomolgus monkeys; 100 mg/kg,0.18 mg/dL
same,Tot Prot,cynomolgus monkeys; 100 mg/kg,6 g/dL
same,Transaminases,[7],Transaminase elevations were observed
